In publication PMC7076710, “Synthesis, Identification, and Structure–Activity Relationship Analysis of GATA4 and NKX2-5 Protein–Protein Interaction Modulators” (Journal of Medicinal Chemistry, 2019):
Like-named read-outs stand apart in the source and are kept apart here.

Assays:
[1] = molecular target: T1, NKX2-5 transcriptional activity (Mus musculus, UniProt P42582); assay: NKX2-5 luciferase reporter assay (3xNKE reporter, COS-1 cells); format: cell-based; conditions: for activity at 3 µM: COS-1, read-out: NKX.3µM
T1 construct: expressed in transfected cells; host or cells: COS-1
T1 sequence (P42582 whole entry): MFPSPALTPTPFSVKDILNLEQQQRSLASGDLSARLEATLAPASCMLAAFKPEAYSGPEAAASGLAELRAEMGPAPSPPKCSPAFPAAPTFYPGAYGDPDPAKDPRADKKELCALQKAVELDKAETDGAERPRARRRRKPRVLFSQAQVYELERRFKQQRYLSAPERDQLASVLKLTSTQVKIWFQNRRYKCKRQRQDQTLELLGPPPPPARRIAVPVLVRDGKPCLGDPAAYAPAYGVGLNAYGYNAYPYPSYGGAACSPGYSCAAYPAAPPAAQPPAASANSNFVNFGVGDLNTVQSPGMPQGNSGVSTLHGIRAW

[2] = molecular target: T2, GATA4 transcriptional activity (Mus musculus, UniProt Q08369); assay: GATA4 luciferase reporter assay (tandem GATA-site reporter, COS-1 cells); format: cell-based; conditions: for activity at 3 µM: COS-1; for GATA4 (% of control) Mean ± SD: 10 μM, COS-1 cells, 24 h
T2 construct: expressed in transfected cells; host or cells: COS-1
T2 sequence (Q08369 whole entry): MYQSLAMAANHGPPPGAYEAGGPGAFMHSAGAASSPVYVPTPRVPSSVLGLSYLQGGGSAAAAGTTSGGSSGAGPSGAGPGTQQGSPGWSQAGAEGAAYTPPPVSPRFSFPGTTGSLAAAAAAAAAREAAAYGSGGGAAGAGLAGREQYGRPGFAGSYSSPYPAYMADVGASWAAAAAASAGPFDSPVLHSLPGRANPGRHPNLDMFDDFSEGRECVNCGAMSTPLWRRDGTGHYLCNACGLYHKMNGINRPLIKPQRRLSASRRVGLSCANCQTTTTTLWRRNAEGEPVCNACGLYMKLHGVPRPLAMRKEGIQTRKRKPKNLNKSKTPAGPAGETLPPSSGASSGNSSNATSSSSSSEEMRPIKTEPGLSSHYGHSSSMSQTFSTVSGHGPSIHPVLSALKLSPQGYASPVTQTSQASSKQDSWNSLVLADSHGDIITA

[3] = 3 µM, luciferase reporter activity, % of control
[4] = 3 µM, luciferase reporter activity relative to control
[5] = 10 µM, luciferase reporter activity relative to control

In the case of `CCN(CC)c1ccc(NC(=O)c2c(-c3ccccc3)noc2C)cc1` [Compound 1, N-[4-(Diethylamino)phenyl]-5-methyl-3-phenylisoxazole-4-carboxamide], the activity at 3 µM [1, 3] is reported as 76% and the activity at 3 µM [2, 3] is reported as 92.1%.

For `Cc1onc(-c2ccccc2)c1C(=O)N(C1=NC(C)CS1)c1ccc(Cl)cc1` (stereo not shown) [Compound 2], the activity at 3 µM [1, 3] was 102% and the activity at 3 µM [2, 3] was 145%.

Work on `Cc1onc(-c2ccccc2)c1COc1ccc(C(=O)OCCC#N)cc1` [Compound 35a, 2-Cyanoethyl 4-[(5-Methyl-3-phenylisoxazol-4-yl)methoxy]benzoate] yielded an activity at 3 µM [1, 4] of 39.5% and an activity at 3 µM [2, 4] of 46.9%.

`CCN(CC)c1ccc(NC(=O)c2cnsc2)cc1` [Compound 47s] showed an activity at 3 µM [1, 4] of 41.8% and an activity at 3 µM [2, 4] of 128%.

For `CCC(=O)N(Cc1ccc(N(CC)CC)cc1)c1c(-c2ccccc2)noc1C` [Compound 58], the activity at 3 µM [1, 4] was 73.7% and the activity at 3 µM [2, 4] was 70.3%.

`COc1ccc(-c2cc(NC(=O)c3ccc(C(C)(C)C)cc3)n[nH]2)cc1` [Compound 72] was tested, and the activity at 3 µM [1, 4] was 74.8%, the “GATA4 (% of control) Mean ± SD” value [2] was 40 % of control and the activity at 3 µM [2, 4] was 70.5%.

With “N-[4-(Diethylamino)phenyl]-3-methyl-5-(4-methyl-1,2,3-thiadiazol-5-yl)isoxazole-4-carboxamide [Compound 47c]” the NKX.3µM [1, 4] was 33.64, the “NKX2-5 (% of control) Mean ± SD” value ([1]; 10 μM, COS-1 cells, 24 h) was 21 ± 0.88 % of control and the NKX.10µM [1, 5] was 20.92. For the same molecule, the GATA.3µM [2, 4] was 61.94, the “GATA4 (% of control) Mean ± SD” value [2] was 68 ± 9.1 % of control and the GATA.10µM [2, 5] was 68.28.
